Source: patent US20160151305A1, “AGENT OR METHOD FOR TREATEMENT AND/OR PREVENTION OF ACCELERATED ENERGY EXPENDITURE AND/OR DIMINISHED ENERGY EXPENDITURE FUNCTIONALITY” (MATSUTANI CHEMICAL INDUSTRY CO., LTD., priority 2013, published 2016)
“Also recorded” adds a separate entry of the source.

Tests used:
[1] = Sensory test by continuous administration of D-psicose in humans (interview); type: in vivo; conditions: for Changes: Body became easier to move (number of subjects) / Changes: Body felt lighter (number of subjects) / Changes: Body felt warmer (number of subjects) / Changes: Felt better (number of subjects) / Changes: Felt less fatigue (number of subjects) / Changes: No change (number of subjects): 5 healthy humans, once a day for 2 weeks, sample A = D-psicose 1.0 g, B = 2.5 g, C = 5.0 g
Protocol: The test was conducted for 5 healthy individuals with no smoking habit (average age of 35.0; 3 males and 2 females). Prior to the experiment, the subjects were fully informed of the experiment contents in line with the guidelines of the Declaration of Helsinki, and the experiment was conducted with the informed consent of all subjects. The subjects were each asked to continuously take sample A (D-psicose, 1.0 g), once a day for 2 weeks. The subjects were then interviewed to see if there was any physical changes. After 1 week, the same subjects were continuously given sample B (D-psicose, 2.5 g) for 2 weeks in the same manner as for sample A, and were interviewed again. The same procedure was repeated after 1 week by continuously giving sample C (D-psicose, 5.0 g) to the same subjects, followed by an interview.

[2] = Metabolism test by long-term administration of D-psicose in rats (hourly energy expenditure); type: in vivo, male Wistar rats; conditions: feed with 50.0 g/kg D-psicose + sucrose vs sucrose group, after 5 to 7 weeks, at hour 11 in the light period and hour 5 and 6 in the dark period, FIG. 2
Text: Effects of long-term administration of D-psicose on energy metabolism were examined using male Wistar rats (3 weeks of age; purchased from Japan SLC). The rats were preliminarily maintained for 1 week with a commercially available powder feed (product name MF; Oriental Yeast Co., Ltd.), and were divided into 2 groups so as to be uniform in body weight upon measuring the body weight (each group contained eight rats). The two groups are a sucrose administered group, and a sucrose+D-psicose administered group.
The two groups of rats were allowed free access to experiment feed (Table 2) and water, and maintained under specific conditions (temperature 22±1° C., humidity 58±2%, light period 8:00 to 20:00, dark period 20:00 to 8:00 next morning). The energy metabolism was measured 5 to 7 weeks after the experiment feed was given. […] The rat breath and the room air were collected into a Douglas bag (Fukuda Sangyo) at 1-hour intervals, and the oxygen and carbon dioxide concentrations were measured with a gas concentration analyzers G-102 and LX-710 (Iijima Electronics Corporation) for 24 hours. The amounts of oxygen consumed by the rat, and the amount of generated carbon dioxide were calculated from the oxygen concentration and the carbon dioxide concentration in the breath, and the oxygen concentration and the carbon dioxide concentration in room air. […]

[3] = Human tests, single D-psicose administration with pure carbohydrate food, energy expenditure; type: in vivo; conditions: humans
[4] = Metabolism test by single oral administration of D-psicose in rats (indirect calorimetry); type: in vivo, male Sprague-Dawley rats; conditions: glucose+fructose+psicose (+Psi group) vs glucose+fructose (-Psi group), mean value every 12 minutes, FIG. 1
Text: Effects of single oral administration of D-psicose on energy metabolism were examined using male Sprague-Dawley rats (7 weeks of age; purchased from CLEA Japan). The rats were preliminarily maintained for 1 week with a commercially available solid feed (CE-2; CLEA Japan), and were divided into 3 groups so as to be uniform in body weight upon measuring the body weight (each group contained eight rats).
The rats were individually put in a cage of a respiratory metabolism measurement system for small animals MK-5000 (Muromachi Kikai Co., Ltd.) at 16 o'clock on the day before a calorimetric test. The rats were measured by indirect calorimetry, and acclimated in the dark without food (dark period).
The rats were placed under a light at 10 o'clock next morning (light period). […] The solution concentrations are different to match total energy amounts. […] For the rest of the experiment, the rats were allowed access to only purified water, and the calorific value was continuously measured until 10 o'clock next day at 23° C. under light.
Resting energy metabolism (resting energy expenditure; hereinafter, “REE”, kcal/min) was calculated by using the Weir equation, and the result was divided by body weight (hereinafter, “BW”, in kg). The mean of measured values from 12 min to 60 min before the administration was regarded as a value at hour 0, and amounts of change were calculated over time. […]

[5] = Metabolism test by single administration of D-psicose in humans (indirect calorimetry of breath); type: in vivo
Protocol: Effects of single administration of D-psicose on energy expenditure, carbohydrate combustion, and lipid combustion were examined in humans. Energy metabolism was calculated by indirect calorimetry from measurements of subjects' breath (oxygen consumption and carbon dioxide discharge). The test was conducted by a single-blinded crossover study of two groups of 6 healthy individuals with no smoking habit (average age of 34.8; 3 males and 3 females; average BMI 21.4 kg/m^2). Prior to the experiment, the subjects were fully informed of the experiment contents in line with the guidelines of the Declaration of Helsinki, and the experiment was conducted with the informed consent of all subjects. The subjects were fasted for 12 hours before starting the test, and were each given a test solution (150 ml) prepared by adding 5 g of D-psicose, or a test solution (150 ml) prepared by adding 10 mg of high sweetener aspartame to provide the same sweetness as control food. The concentration of the test solution was 3.3% for the D-psicose group, and 0.005% for the aspartame group. After giving the test solution, the subjects were given breakfast (hamburg steak with rice; total calorie: 571 kcal; protein 13.4%, lipid 25.3%, carbohydrate 61.3%). After the breakfast, the subjects were rested on the bed for 20 min in the resting supine position to acclimate to the environment, and the breath was measured with an Aero Monitor AE-310S (Minato Medical Science) connected to a breathing hood. The measurement was ended after 4 hours from the breakfast. During the measurement, the oxygen consumption and the carbon dioxide discharge of each subject were recorded every minute, and energy expenditure, carbohydrate combustion, and lipid combustion were calculated from the measured values using the Elwyn energy equation. Throughout the breath measurement, the subjects were rested on the bed in the resting supine position, and were kept awake and fasted. The results were divided by subject ‘ s body weights, and were represented as mean values and standard deviation. […]

[6] = 5 g D-psicose immediately before lipid-containing breakfast vs aspartame control, 20 minutes to 4 hours from breakfast, FIG. 3

O=C(CO)[C@H](O)[C@H](O)[C@H](O)CO [A, D-psicose]
Changes: Body became easier to move (number of subjects) [1]: 1
Changes: Body felt lighter (number of subjects) [1]: 1
Changes: Body felt warmer (number of subjects) [1]: 1
Changes: Felt better (number of subjects) [1]: 1
Changes: Felt less fatigue (number of subjects) [1]: 1
Changes: No change (number of subjects) [1]: 4
interview result on repeat test ([1]; humans, sample A (D-psicose 1.0 g) again for 2 weeks, 1 week after testing with sample C): produced the same result

O=C(CO)[C@H](O)[C@H](O)[C@H](O)CO [B, D-psicose]
Changes: Body became easier to move (number of subjects) [1]: 2
Changes: Body felt lighter (number of subjects) [1]: 3
Changes: Body felt warmer (number of subjects) [1]: 3
Changes: Felt better (number of subjects) [1]: 2
Changes: Felt less fatigue (number of subjects) [1]: 2
Changes: No change (number of subjects) [1]: 0

O=C(CO)[C@H](O)[C@H](O)[C@H](O)CO [C, D-psicose]
Changes: Body became easier to move (number of subjects) [1]: 3
Changes: Body felt lighter (number of subjects) [1]: 5
Changes: Body felt warmer (number of subjects) [1]: 5
Changes: Felt better (number of subjects) [1]: 2
Changes: Felt less fatigue (number of subjects) [1]: 2
Changes: No change (number of subjects) [1]: 0

O=C(CO)[C@H](O)[C@H](O)[C@H](O)CO [D-psicose]
hourly energy expenditure per measured rat weight [2]: significantly higher
physical changes reported in interview ([1]; humans, continuous intake of 2.5 g or more of D-psicose for 2 weeks): The subjects all experienced some changes; also recorded: increase or improve body temperature and other sensations
effect on energy expenditure [3]: did not have effect on energy expenditure
AREE/BW (change of resting energy expenditure per body weight, water group subtracted) [4]: no significant difference
energy expenditure (REE) per body weight [5, 6]: significantly increased
lipid combustion (FEE) per body weight [5, 6]: significantly increased
energy metabolism result at lower dose ([5]; single D-psicose dose 2.4 g): did not show any difference
